{"source": "patent US11311598B2", "about": "“Peptides and analogs for use in the treatment of oral mucositis” (Soligenix, Inc., priority 2013, dated 2022)", "key": {"[1]": {"tested_on": "primary human leukemia cells", "test": "proliferation of primary human leukemia cells in vitro", "format": "cell-based"}, "[2]": {"tested_on": "MRSA", "test": "MRSA skin infection model", "format": "in vivo, mouse", "experimental": "Infection was initiated 1 day after the hair was removed from the dorsal area of each mouse. RIVPA (SEQ ID NO. 5) (25 mg/kg IV or 100 mg/kg SC) was administered 4 h prior to infection and at various times after infection as indicated. Oral linezolid was used as the comparator and was administered daily at 12.5 mg/kg. On Day 0 (at −1 h) each mouse was anesthetized using isoflurane and the shaved dorsal skin was damaged by 7 consecutive applications and removals of surgical tape. This lesion was then immediately infected by topical administration of 10 μL of the bacterial suspension, delivering a total challenge of 7.6 login cfu per mouse. Efficacy was evaluated by measurement of the bacterial burden in punch biopsies of the skin at 48 h (FIG. 14—panel A) and 96 h (FIG. 14—panel B) following the bacterial challenge and by macroscopic assessment of digital images of the skin by a blinded, board-certified pathologist at 48 h (FIG. 14—panel C) and 96 h (FIG. 14—panel D) after infection. […] The mean bacterial burden for each therapeutic group was statistically compared to that of its time-matched saline control through use of a t-test comparison of means, assuming unequal variances, performed on Excel. Comparisons which returned a p value […] were considered statistically different."}, "[3]": {"tested_on": "central nervous system (CNS)", "test": "effects on the central nervous system in any study", "format": "in vivo", "conditions": "any study at any dose level", "experimental": "No effects of RIVPA (SEQ ID NO. 5) have been observed on the central nervous system (CNS) in any study at any dose level and little or no radiolabelled RIVPA (SEQ ID NO. 5) was found in the mouse CNS at dose levels of either 20 or 90 mg/kg."}, "[4]": {"tested_on": "mouse tongue epithelium", "test": "prevention of radiation-induced mucositis (25 Gy to the mouse snout)", "format": "in vivo", "conditions": "25 Gy to mouse snout Day 0; 5 doses of 25 mg/kg IV every second day", "experimental": "RIVPA (SEQ ID NO. 5) and other IDRs modulate the innate defense response to tissue injury, reducing the severity of damage caused by the inflammatory cascade and enhancing resolution of disease. As described above, IDRs can mitigate the response to radiation damage in an oral mucositis model (FIG. 1, FIG. 2). […] Progressive thinning of the mouse tongue was assessed on Days 0, 2, 4, 6, 8, and 10 by histopathological analysis of the number of basal and suprabasal apoptotic, mitotic and total epithelial cells per unit area and per unit length. It is noted that the dose of radiation used (25 Gy) was chosen such that progressive thinning of the tongue epithelium was observed but no overt mucositis occurred."}, "[5]": {"tested_on": "human normal blood cells", "test": "proliferation of human normal blood cells in vitro", "format": "cell-based"}, "[6]": {"tested_on": "male C57BL/6 mice", "test": "DSS-induced colitis model", "format": "in vivo, mouse", "experimental": "The ability of IV RIVPA (SEQ ID NO. 5), administered pre-emptively or therapeutically, to directly protect GI mucosal surfaces was confirmed in a DSS-induced colitis model. In this model, DSS was administered as a 3% DSS solution in the drinking water of male C57BL/6 mice from Days 0 to 5 of the study. Colitis was monitored by video endoscopy on Days 7, 14 and 21. RIVPA (SEQ ID NO. 5) (25 mg/kg IV) was administered every third day from Days 0 to 18 (Q3d d0-18), from Days 3 to 18 (Q3d d3-18) or from Days 6 to 18 (Q3d d6-18). […] However, reduction in Day 7 scores was only observed in groups which had received at least 2 doses of RIVPA (SEQ ID NO. 5) by that time (i.e., Q3d d0-18 and Q3d d3-18 but not Q3d d6-18). […] Statistical analysis was undertaken using t-tests and an asterisk indicates statistically significant differences from control (p<0.05)."}, "[7]": {"tested_on": "healthy volunteers", "test": "Phase 1 study in healthy volunteers, safety (SAD and MAD)", "format": "in vivo, human", "description": "Clinical experience with RIVPA (SEQ ID NO. 5) was obtained in a Phase 1 Study. The primary objective of the study was to determine the maximum tolerated dose (MTD) of single and repeat ascending doses of RIVPA (SEQ ID NO. 5) injectable solution following IV administration in healthy volunteers. The secondary objectives of this study included the assessment of the dose limiting toxicity (DLT), safety, PK and pharmacodynamic (PD) profiles of RIVPA (SEQ ID NO. 5) after single and repeated ascending IV doses of RIVPA (SEQ ID NO. 5). The study was divided into 2 phases: a single-ascending dose (SAD) phase and a multiple-ascending dose (MAD) phase.\nSingle IV doses of RIVPA (SEQ ID NO. 5) were well tolerated up to the maximum tested (8 mg/kg) and daily IV doses were well tolerated up to the maximum tested (6.5 mg/kg for 7 days).\nThe most frequently reported TEAEs (observed in more than one subject who received RIVPA (SEQ ID NO. 5) and in a higher proportion (%) than placebo subjects) were study treatment procedure-related events (General Disorders and Administration Site Conditions) such as vessel puncture site haematoma, vessel puncture site reaction and vessel puncture site pain. All vessel puncture-related events were mild and determined to be unrelated to study treatment by the QI. The second most frequently reported TEAEs were Nervous System Disorders, specifically headache and dizziness; these events were only mild to moderate. All other TEAEs were reported by only 1 subject at any given dose level (maximum of 3 dose levels).\nThe incidence of “possibly-related” events was also higher in the 2 highest dose levels. However, due to the small sample sizes (4 subjects received active treatment in each cohort), it was not possible to conclude whether the results definitely represented a dose-response. The majority of the TEAEs were not related to study treatment and were mild in severity with only one event reported as moderate. The most frequently reported TEAEs for subjects who received RIVPA (SEQ ID NO. 5) were General Disorders and Administration Site Conditions (i.e., procedure-related events) such as vessel puncture site haematoma, vessel puncture site reaction, and vessel puncture site pain. All vessel puncture-related events were mild and judged to be unrelated to treatment. Increased alanine aminotransferase (ALT) and back pain were reported by 3 (15.0%) subjects who received RIVPA (SEQ ID NO. 5) and these events were observed by only one (10.0%) subject who received the placebo."}, "[8]": {"conditions": "multiple ascending dose phase, subjects who received RIVPA"}}, "note": "Where no end group is shown, it is not given here."}
{"substance": "RIVPA-NH2 [RIVPA (SEQ ID NO. 5), RIVPA]", "values": [{"measurement": "proliferation of primary leukemia cells", "setting": "[1]", "value": "did not promote the proliferation"}, {"measurement": "skin healing", "setting": "[2]; 25 mg/kg IV or 100 mg/kg SC, 4 h prior to infection and after", "value": "accelerating skin healing"}, {"measurement": "bacterial load in skin punch biopsies relative to control", "setting": "[2]; 48 or 96 h after bacterial challenge", "value": "neither linezolid nor RIVPA (SEQ ID NO. 5) reduced bacterial load"}, {"measurement": "resolution of tissue damage in topically MRSA-infected skin", "setting": "[2]; FIG. 14", "value": "enhances"}, {"measurement": "effects on the central nervous system (CNS)", "setting": "[3]", "value": "No effects"}, {"measurement": "disease progression (progressive thinning of the mouse tongue)", "setting": "[4]", "value": "did not have any significant impact"}, {"measurement": "proliferation of normal blood cells", "setting": "[5]", "value": "did not promote the proliferation"}, {"measurement": "endoscopic colitis severity score", "setting": "[6]; Day 7, Q3d d0-18", "value": "reduction"}, {"measurement": "endoscopic colitis severity score", "setting": "[6]; Day 7, Q3d d3-18", "value": "reduction"}, {"measurement": "endoscopic colitis severity score", "setting": "[6]; Day 14, all regimens, 25 mg/kg IV every third day", "value": "statistically significant reduction"}, {"measurement": "endoscopic colitis response", "setting": "[6]; Day 21, all 3 treatment groups", "value": "responding in a similar manner"}, {"measurement": "edema and necrosis, histopathology of the colon", "setting": "[6]; Day 21, some RIVPA treated groups", "value": "statistically significantly decreased"}, {"measurement": "severity of DSS-induced colitis", "setting": "[6]; endoscopy days 7, 14, 21 and histopathology day 21, FIG. 3", "value": "reduces"}, {"measurement": "vital sign measurements, clinical laboratory or ECG results versus placebo", "setting": "[7]; Phase 1", "value": "No safety concerns or significant differences"}, {"measurement": "deaths and serious Adverse Events", "setting": "[7]; Phase 1, SAD and MAD", "value": "no deaths and no clinically significant, severe, or serious Adverse Events"}, {"measurement": "dose limiting toxicities (DLTs)", "setting": "[7]; Phase 1, SAD and MAD", "value": "no dose limiting toxicities"}, {"measurement": "MTD", "setting": "[7]; either phase of the trial", "value": "not reached"}, {"measurement": "daily IV doses well tolerated up to the maximum tested", "setting": "[7]; healthy volunteers, daily for 7 days", "value": "≤ 6.5", "unit": "mg/kg"}, {"measurement": "single IV doses well tolerated up to the maximum tested", "setting": "[7]; healthy volunteers, single-ascending dose phase", "value": "≤ 8", "unit": "mg/kg"}, {"measurement": "incidence of TEAEs", "setting": "[7]; multiple ascending dose phase, 4.5 and 6.5 mg/kg/day", "value": "highest incidence"}, {"measurement": "Increased alanine aminotransferase (ALT)", "setting": "[7]; [8]", "value": "3 (15.0%) subjects"}, {"measurement": "back pain", "setting": "[7]; [8]", "value": "3 (15.0%) subjects"}, {"measurement": "incidence of TEAEs", "setting": "[7]; single ascending dose phase", "value": "not dose-related"}]}
